In general, Ki refers to the dissociation constant of the complex between target and ligand, obtained from inhibition or displacement.

Ends that are not written are not given here.

Experiment [1] has as its system MCH binding sites of G4F-7 cells. As to conditions: cited from earlier work.
Another experiment has as its target human MCH1 receptor (Homo sapiens, UniProt Q99705). The experiment is described as follows: Binding of [125I]Phe13,Tyr19-MCH on MCH1-transfected Cos-7 cell membranes. Set-up: expressed in transfected cells; host or cells: COS-7. Particulars: 0.1 nM radioligand. As to the method: For binding assays, pellets of transfected cells are suspended in ice-cold buffer (20 mM Tris.HCl, 5 mM EDTA, pH 7.4) and homogenized by sonication for 7 sec. The cell lysates are centrifuged at 200×g for 5 min at 4° C. The supernatants are then centrifuged at 40,000×g for 20 min at 4° C. The resulting pellets are washed once in the homogenization buffer and suspended in binding buffer (see methods for radioligand binding). Protein concentrations are determined by the method of Bradford (1976) using bovine serum albumin as the standard. Binding assays are usually performed immediately, however it is possible to prepare membranes in batch and store frozen in liquid nitrogen for future use.
MCH1 binding experiments with membranes (20-40 μg membrane protein) from transfected cells are performed with 0.1 nM [^125I]Phe^13-Tyr^19-MCH (Custom labeled by NEN) using incubation buffer consisting of 50 mM Tris pH 7.4, 10MM MgCl2, 2 μg/ml aprotonin, 0.5 mM PMSF and 50 μg/ml bacitracin. Binding is performed at 25° C. for 1 hr. Incubations are terminated by rapid vacuum filtration over GF/C glass fiber filters, presoaked in 5% PEI using 50 mM Tris pH 7.4 containing 0.01% triton X-100 as wash buffer.
Specific [^125I]Phe^13-Tyr^19-MCH binding was about 70% of total binding at a radioligand concentration of 0.1 nM (FIG. 10).

The target in a further experiment is T1, rat MCH1 receptor (Rattus norvegicus, UniProt P97639).
T1 construct: expressed in transfected cells
In words: Binding affinity (Ki) at the rat MCH1 receptor. Particulars: Examples 142-153; read-out: Ki (nM) rMCH1.

The test system of experiment [2] is micturition reflex, anesthetized female Sprague Dawley rats. In words: Distension-induced rhythmic contraction (DIRC) model. Type of experiment: in vivo, rat. Set-up: key: A = Produced a significant increase in contraction interval relative to pre-drug interval. As to conditions: contraction interval, i.v. or i.p. The procedure: The effects of compounds on the micturition reflex were assessed in the “distension-induced rhythmic contraction” (DIRC), as described in previous publications (e.g. Maggi et al, 1987; Morikawa et al, 1992), and Continuous Slow Transvesicular Infusion (CSTI) models in rats.
Female Sprague Dawley rats weighing approximately 300 g were anesthetized with subcutaneous urethane (1.2 g/kg). The trachea was cannulated with PE240 tubing to provide a clear airway throughout the experiment. A midline abdominal incision was made and the left and right ureters were isolated. The ureters were ligated distally (to prevent escape of fluids from the bladder) and cannulated proximally with PE10 tubing. The incision was closed using 4-0 silk sutures, leaving the PE10 lines routed to the exterior for the elimination of urine. The bladder was canulated via the transurethral route using PE50 tubing inserted 2.5 cm beyond the urethral opening. This cannula was secured to the tail using tape and connected to a pressure transducer. To prevent leakage from the bladder, the cannula was tied tightly to the exterior urethral opening using 4-0 silk.
To initiate the micturition reflex, the bladder was first emptied by applying pressure to the lower abdomen, and then filled with normal saline in […] (maximum 2 ml) until spontaneous bladder contractions occurred (typically 20-40 mmHg at a rate of one contraction every 2 to 3 minutes. Once a regular rhythm was established, vehicle (saline) or Test Compounds were administered i.v. or i.p. to explore their effects on bladder activity. The 5-HT1A antagonist WAY-100635 was given as a positive control. Data were expressed as contraction interval (in seconds) before drug application (basal), or after the application of vehicle or test article.

In experiment [3] the test system is micturition reflex, conscious male Sprague Dawley rats. The experiment is described as follows: Continuous Slow Transvesicular Infusion (CSTI) rat model. Type of experiment: in vivo. Set-up: key to Effect of MCH1 antagonist in the CSTI model: B = Produced an increase in bladder capacity in rats relative to baseline capacity. Particulars: bladder capacity, intragastric. As to the method:
The effects of compounds on the micturition reflex were assessed in the “distension-induced rhythmic contraction” (DIRC), as described in previous publications (e.g. Maggi et al, 1987; Morikawa et al, 1992), and Continuous Slow Transvesicular Infusion (CSTI) models in rats. Male Sprague Dawley rats weighing approximately 300 g were used for the study. Rats were anaesthetized with pentobarbitone sodium (50 mg/kg, i.p). Through a median abdominal incision, bladder was exposed and a polyethylene cannula (PE 50) was introduced into the bladder through a small cut on the dome of the bladder and the cannula was secured with a purse string suture. The other end of the cannula was exteriorized subcutaneously at the dorsal neck area. Similarly, another cannula (PE 50) was introduced into the stomach through a paramedian abdominal incision with the free end exteriorized subcutaneously to the neck region. The surgical wounds were closed with silk 4-0 suture and the animal was allowed to recover with appropriate post surgical care. On the following day, the animal was placed in a rat restrainer. The open end of the bladder cannula was connected to a pressure transducer as well as infusion pump through a three-way stopcock. The bladder voiding cycles were initiated by continuous infusion of normal saline at the rate of 100 ul/min. The repetitive voiding contractions were recorded on a Power Lab on-line data acquisition software. After recording the basal voiding pattern for an hour, the test drug or vehicle was administered directly into stomach through the intragastric catheter and the voiding cycles were monitored for 5 hours. Micturition pressure and frequency were calculated before and after the treatment (at every 30 min interval) for each animal. Bladder capacity was calculated from the micturition frequency, based on the constant infusion of 100 ul/min. The effect of the test drug was expressed as a percentage of basal, pre-drug bladder capacity. WAY 100635 was used as positive control for comparison.

Sequence of human MCH1 receptor (Q99705 whole entry): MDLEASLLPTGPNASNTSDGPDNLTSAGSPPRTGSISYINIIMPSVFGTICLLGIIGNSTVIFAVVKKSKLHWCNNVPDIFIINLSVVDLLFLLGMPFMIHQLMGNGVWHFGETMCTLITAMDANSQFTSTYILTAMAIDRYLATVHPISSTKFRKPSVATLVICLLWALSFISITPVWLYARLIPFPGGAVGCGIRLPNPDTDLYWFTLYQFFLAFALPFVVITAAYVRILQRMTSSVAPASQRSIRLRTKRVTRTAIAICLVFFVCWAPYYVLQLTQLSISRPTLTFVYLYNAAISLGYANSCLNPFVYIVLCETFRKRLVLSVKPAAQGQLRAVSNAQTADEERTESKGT
T1 sequence (P97639 whole entry): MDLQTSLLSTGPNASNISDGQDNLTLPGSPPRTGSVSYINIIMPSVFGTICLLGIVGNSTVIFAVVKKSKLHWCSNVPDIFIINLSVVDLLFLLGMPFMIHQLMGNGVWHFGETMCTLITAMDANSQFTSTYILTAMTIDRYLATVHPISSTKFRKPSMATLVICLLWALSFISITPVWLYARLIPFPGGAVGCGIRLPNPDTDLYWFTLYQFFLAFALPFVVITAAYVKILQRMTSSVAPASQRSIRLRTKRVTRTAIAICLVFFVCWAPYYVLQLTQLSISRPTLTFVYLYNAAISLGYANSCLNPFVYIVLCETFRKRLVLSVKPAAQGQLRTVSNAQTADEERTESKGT

Consider “rat ANF: rat ANF, weakly inhibited binding of the radioiodinated MCH analogue (SLRRSSCFGGRIDRIGAQSGLGCNSFRY; ends and bridges not checked; cysteine pairing not given here; UniProt P01161 123-150, looked up)”, for which, in experiment [1] (inhibition of binding of the radioiodinated ligand), the Ki is 116 nM.
Regarding “[^125I]Phe^13-Tyr^19-MCH: radioiodinated MCH analogue, custom labeled by NEN, radioligand of the MCH1 binding experiments”, the “specific binding as share of total binding” value in the experiment with human MCH1 receptor was “about 70 % of total binding”. The specific binding result in the experiment with human MCH1 receptor (MCH1-transfected cells) was “about 80 fmol/mg membrane protein”.
Consider α-MSH, for which, in experiment [1], the “inhibition of binding of the radioiodinated ligand” value is listed as “not inhibited”.
On to `CC(=O)c1cccc(O[C@H](CCN2CCC(c3cccc(NC(=O)C(C)C)c3)CC2)c2ccccc2)c1` [Example 151], for which the Ki on rat MCH1 receptor is 3.8 nM. Further, in experiment [2], the “Effect of MCH1 antagonist in the DIRC model” value is “A”. Further, the “Effect of MCH1 antagonist in the CSTI model” value in experiment [3] is recorded as “B”.

These data come from US20040038855A1 (priority 1999, published 2004).
